How the values were obtained:
[1] = target: T1, DNMT1 (amino acids 621–1616) (Homo sapiens, UniProt P26358); assay: Validation of HTS hits, endonuclease-coupled DNA methylation assay; type: biochemical; parameters: Percent Activity: concentration or dose not given beside the values; settings: for vo (initial velocity): first 12 minutes of GlaI corrected triplicate reaction traces; for Percent Activity: from initial velocity compared to DMSO control; for Normalized RFU: normalized to DMSO control (100) and GlaI control without DNMT1 (0); for RFU: relative fluorescence after 25-minute incubation at 37 °C, 10.9 µM test compound, three replicates
T1 construct: RFTS-lacking DNMT1, amino acids 621–1616; made in house
Protocol: DNMT activity was measured at 37°C using a fluorogenic DNA methylation assay. In short, a hemi-methylated hairpin oligonucleotide with a 5′ fluorophore and a 3′ quencher is methylated by addition of a DNMT and the methyl-donating co-factor, S-adenosyl methionine (SAM, HPLC-purified from Sigma). The fully methylated product is a substrate for the restriction endonuclease GlaI (Sibenzyme), which cleaves the oligonucleotide, releasing the fluorophore from the quencher and generating fluorescence. The oligonucleotide substrate (5′-FAM–[…]m[…]mCGmCATAGG-3′-Iowa Black, in which mC denotes 5-methyldeoxycytidylate residues), termed 8006, was synthesized by Integrated DNA Technologies, Coralville, IA. 96 well assays were performed in Co-Star black half-area plates and read in a Biotek Synergy Neo plate reader. 384 well assays were performed in Nunc flat-bottomed black plates and read in a PerkinElmer EnVision plate reader. FAM fluorescence was measured using excitation and emission wavelengths of 485 nm and 520 nm, respectively.
HTS against the Spectrum compound collection (Microsource, Gaylordsville, CT) was performed in eight 384 well plates. Using a Multiflo dispenser (Biotek), 75 µl of assay buffer (10.8 mM Tris-HCl pH 7.5, 1.08 mM MgCl2, 1.08 mM DTT, 108 mM potassium glutamate, 0.108 mg/ml BSA, 10.8 µM SAM, 21.6 nM oligonucleotide 8006, 5.4% glycerol) was dispensed into each well. 1 µl of each compound at 880 µM in DMSO (columns 3–22) or DMSO (columns 1, 2, 23 and 24) was added to assay plates using a Microlab Star liquid handling robot (Hamilton) and the plate was incubated at 37°C for 10 minutes. Following this warming step, 5 µl enzyme solution (either a DNMT1-containing solution of 20 mM Tris-HCl, pH 7.5, 300 mM NaCl, 2 mM DTT, 49 nM DNMT1 (amino acids 621–1616), 0.08 U/µl GlaI, 30% glycerol to columns 2–23 or a GlaI control solution of 20 mM Tris-HCl, pH 7.5, 300 mM NaCl, 2 mM DTT, 0.08 U/µl GlaI, 30% glycerol to columns 1 and 24) was added and the plate was again incubated at 37°C for 25 minutes. […] Each 384 well plate contained two columns of negative (n) and positive (p) controls for inhibitor activity. Columns 2 and 23 were the n controls with DMSO without test compound. Columns 1 and 24 were the p controls without DNMT1. Thus, 320 compounds were assayed per 384 well plate in columns 3–22.
Data across the screen were normalized to the p (0% DNMT1 activity) and n (100% DNMT1 activity) controls on each plate. […] Validation assays (81 µl total volume, identical buffer conditions to those used in the HTS screen) were performed in triplicate in 96 well plates with FAM fluorescence measured over the course of 1 hour. A control containing GlaI in the absence of DNMT1 was subtracted from each assay condition. Corrected assay traces were plotted and compared to DMSO-containing control traces in Prism (GraphPad Software, Inc).

[2] = target: T1, DNMT1 (amino acids 621–1616); assay: Differential scanning fluorimetry (DSF) assay; type: binding; settings: 100 µM compound; for Tm: 2 µM DNMT1, no DNA or SAM, DMSO 46.5 ± 0.1; for ∆Tm: shift versus DMSO control
Protocol: DSF [32] was used to assess the ability of the validated inhibitors to bind directly to DNMT1 in the absence of DNA and SAM and alter the observed melting temperature (Tm). Assays (25 µl) were conducted in triplicate in a Bio-Rad C1000 Thermal Cycler – CFX Real-Time System using the FRET channel and contained 50 mM HEPES pH 7.5, 150 mM NaCl, 2 µM DNMT1 (amino acids 621–1616), 5X Sypro Orange (Invitrogen Molecular Probes), 100 µM compound, and 1% DMSO. A DMSO control assay in the absence of compounds was also examined. Temperature was increased from 25 to 95°C by 0.5°C per minute. Fluorescence traces were exported and analyzed by fitting to the Boltzmann equation in Prism to determine the Tm.

[3] = target: T2, CD-DNMT3A/DNMT3L complex (Homo sapiens, UniProt Q9Y6K1); assay: Compound selectivity, endonuclease-coupled DNA methylation assay; type: biochemical; settings: 20 µM inhibitor; for Percent activity, DNMT3A/DNMT3L Complex: 20 nM methyltransferase, 0.25 mM SAM
T2 construct: CD-DNMT3A; amino acids 611–912; His tag (N); made in house; host or cells: Rosetta 2(DE3)pLysS (E. coli) for CD-DNMT3A
Protocol: (§1) Triplicate assays (100 µl) containing 0.25 mM SAM, 0.2 µM oligonucleotide 8006, 0.8 U GlaI, 20 nM methyltransferase, 20 µM inhibitor and 1% DMSO were conducted in 96 well plates. Following enzyme addition, assay plates were incubated at 37°C for 75 min and fluorescence was measured in a BioTek Neo plate reader. A control containing only GlaI was subtracted from each assay. […] Percent activity was determined by comparing product formation to a DMSO containing control assay.

[4] = target: T3, RFTS-containing DNMT1 (amino acids 351–1616) (Homo sapiens, UniProt P26358); assay: as above; type: biochemical; settings: 20 µM inhibitor, 20 nM methyltransferase, 0.25 mM SAM
T3 construct: RFTS-containing DNMT1, amino acids 351–1616; made in house
Protocol: as §1

[5] = target: T4, M.SssI DNMT (Spiroplasma monobiae, UniProt P15840); assay: as above; type: biochemical, bacterial; settings: 1.25 h; 20 µM inhibitor, 20 nM methyltransferase, 0.25 mM SAM; read-out: Percent activity, M.SssI DNMT
T4 construct: purchased New England Biolabs
Protocol: as §1, with “After identifying direct inhibitors of DNMT1 lacking the RFTS domain, inhibitor selectivity was assessed by examining inhibition of RFTS-containing DNMT1 (amino acids 351–1616), CD-DNMT3A/DNMT3L complex, and the bacterial cytosine methyltransferase from M. SssI (New England Biolabs) using the endonuclease-coupled DNA methylation assay. Triplicate” for “Triplicate”

T3 sequence (P26358 351-1616): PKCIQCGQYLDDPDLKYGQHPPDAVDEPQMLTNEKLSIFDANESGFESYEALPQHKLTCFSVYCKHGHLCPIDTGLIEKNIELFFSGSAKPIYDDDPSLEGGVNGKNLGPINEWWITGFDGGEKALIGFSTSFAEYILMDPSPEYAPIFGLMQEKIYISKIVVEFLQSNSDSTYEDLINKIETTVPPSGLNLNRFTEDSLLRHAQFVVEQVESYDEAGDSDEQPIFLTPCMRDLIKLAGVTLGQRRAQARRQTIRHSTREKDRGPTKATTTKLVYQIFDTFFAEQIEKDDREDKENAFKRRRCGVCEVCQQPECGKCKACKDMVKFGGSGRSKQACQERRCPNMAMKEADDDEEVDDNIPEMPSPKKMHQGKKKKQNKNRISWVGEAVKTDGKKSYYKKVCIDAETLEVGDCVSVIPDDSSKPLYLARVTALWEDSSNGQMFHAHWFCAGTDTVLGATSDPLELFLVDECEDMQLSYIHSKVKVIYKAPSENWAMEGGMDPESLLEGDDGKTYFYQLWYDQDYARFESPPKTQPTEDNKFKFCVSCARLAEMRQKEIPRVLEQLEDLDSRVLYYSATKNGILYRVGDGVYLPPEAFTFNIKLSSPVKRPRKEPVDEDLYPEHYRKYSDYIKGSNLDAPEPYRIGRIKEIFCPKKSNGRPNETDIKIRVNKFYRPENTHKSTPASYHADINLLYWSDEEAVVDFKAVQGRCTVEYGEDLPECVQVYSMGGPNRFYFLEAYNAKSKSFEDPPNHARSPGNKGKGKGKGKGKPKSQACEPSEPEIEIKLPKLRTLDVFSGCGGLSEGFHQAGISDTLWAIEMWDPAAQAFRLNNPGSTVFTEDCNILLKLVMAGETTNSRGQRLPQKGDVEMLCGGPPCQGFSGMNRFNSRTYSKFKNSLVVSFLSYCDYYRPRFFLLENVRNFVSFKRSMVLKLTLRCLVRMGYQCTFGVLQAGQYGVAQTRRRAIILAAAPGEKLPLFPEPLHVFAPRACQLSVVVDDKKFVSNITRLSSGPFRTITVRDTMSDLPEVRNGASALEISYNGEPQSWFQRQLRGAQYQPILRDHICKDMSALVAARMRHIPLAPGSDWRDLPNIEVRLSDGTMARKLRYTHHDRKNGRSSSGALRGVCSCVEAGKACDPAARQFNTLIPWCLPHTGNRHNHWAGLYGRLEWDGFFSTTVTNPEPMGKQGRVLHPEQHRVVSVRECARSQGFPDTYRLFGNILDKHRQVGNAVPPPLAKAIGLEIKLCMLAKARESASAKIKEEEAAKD
T4 sequence (P15840 whole entry): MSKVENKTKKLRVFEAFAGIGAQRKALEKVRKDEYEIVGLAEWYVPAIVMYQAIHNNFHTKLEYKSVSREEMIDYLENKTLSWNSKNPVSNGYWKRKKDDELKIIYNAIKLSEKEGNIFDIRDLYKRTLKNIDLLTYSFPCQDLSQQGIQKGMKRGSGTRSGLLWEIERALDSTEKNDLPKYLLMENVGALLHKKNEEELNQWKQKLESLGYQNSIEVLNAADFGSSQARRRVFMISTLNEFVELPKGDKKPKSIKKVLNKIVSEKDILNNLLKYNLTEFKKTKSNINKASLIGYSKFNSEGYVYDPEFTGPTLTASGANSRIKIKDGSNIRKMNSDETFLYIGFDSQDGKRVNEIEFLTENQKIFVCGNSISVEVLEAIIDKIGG
T1 sequence (P26358 621-1616): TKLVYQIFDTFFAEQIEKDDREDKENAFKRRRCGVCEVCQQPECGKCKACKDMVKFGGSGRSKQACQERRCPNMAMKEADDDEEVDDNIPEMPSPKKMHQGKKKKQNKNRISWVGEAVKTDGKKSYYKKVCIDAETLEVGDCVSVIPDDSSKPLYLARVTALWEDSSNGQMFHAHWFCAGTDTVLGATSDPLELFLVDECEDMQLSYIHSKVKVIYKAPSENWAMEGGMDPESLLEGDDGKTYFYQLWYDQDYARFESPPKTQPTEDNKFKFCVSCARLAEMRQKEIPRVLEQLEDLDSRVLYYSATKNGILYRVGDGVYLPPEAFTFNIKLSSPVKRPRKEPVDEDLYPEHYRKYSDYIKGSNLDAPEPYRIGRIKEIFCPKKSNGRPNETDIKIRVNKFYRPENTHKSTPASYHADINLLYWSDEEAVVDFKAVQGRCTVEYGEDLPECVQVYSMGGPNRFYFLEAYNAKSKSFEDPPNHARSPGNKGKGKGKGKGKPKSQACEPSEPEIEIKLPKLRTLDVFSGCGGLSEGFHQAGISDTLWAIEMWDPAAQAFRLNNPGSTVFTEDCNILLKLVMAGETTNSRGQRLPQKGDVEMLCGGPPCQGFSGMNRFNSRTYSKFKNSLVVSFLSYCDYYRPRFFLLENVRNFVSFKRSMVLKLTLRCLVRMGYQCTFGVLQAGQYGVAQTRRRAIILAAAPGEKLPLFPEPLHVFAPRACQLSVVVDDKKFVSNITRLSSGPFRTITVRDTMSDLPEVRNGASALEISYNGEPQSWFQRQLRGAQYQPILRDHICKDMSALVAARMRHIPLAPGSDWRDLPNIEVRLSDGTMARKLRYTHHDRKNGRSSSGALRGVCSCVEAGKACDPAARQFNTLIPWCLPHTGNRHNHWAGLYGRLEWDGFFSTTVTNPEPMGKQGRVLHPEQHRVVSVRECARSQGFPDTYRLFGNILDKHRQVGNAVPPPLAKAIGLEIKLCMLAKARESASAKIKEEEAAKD
T2 sequence (Q9Y6K1 611-912): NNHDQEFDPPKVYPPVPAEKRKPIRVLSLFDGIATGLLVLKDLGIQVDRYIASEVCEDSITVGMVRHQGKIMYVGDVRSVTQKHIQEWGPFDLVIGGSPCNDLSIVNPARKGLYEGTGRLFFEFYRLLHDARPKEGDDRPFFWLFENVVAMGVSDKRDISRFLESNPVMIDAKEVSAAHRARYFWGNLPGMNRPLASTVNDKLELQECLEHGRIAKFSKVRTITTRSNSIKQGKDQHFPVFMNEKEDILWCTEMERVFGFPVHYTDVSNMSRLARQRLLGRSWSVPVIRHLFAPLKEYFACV
T2 sequence (Q9UJW3 whole entry partner, the tested form may be a part): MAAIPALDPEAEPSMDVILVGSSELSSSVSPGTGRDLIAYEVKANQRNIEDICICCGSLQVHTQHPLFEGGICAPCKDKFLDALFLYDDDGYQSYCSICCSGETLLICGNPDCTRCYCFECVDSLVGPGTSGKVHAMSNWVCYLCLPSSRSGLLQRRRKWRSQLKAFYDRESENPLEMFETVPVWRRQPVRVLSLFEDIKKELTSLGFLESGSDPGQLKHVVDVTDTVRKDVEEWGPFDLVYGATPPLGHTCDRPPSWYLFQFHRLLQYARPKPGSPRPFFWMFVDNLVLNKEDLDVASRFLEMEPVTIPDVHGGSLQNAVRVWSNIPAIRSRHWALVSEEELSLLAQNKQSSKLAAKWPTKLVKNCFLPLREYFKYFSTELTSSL

Compound	vo (initial velocity) [1] [RFU/min]	Percent Activity [1] [%]	Normalized RFU [1]	RFU [1] [RFU]	Tm [2]	∆Tm [2]	selectivity for DNMT1 versus DNMT3A/DNMT3L (in words) [3]	Percent activity, DNMT3A/DNMT3L Complex [3] [%]	Percent activity, RFTS-containing Dnmt1 [4] [%]	remaining activity at 20 µM [5] [%]	selectivity for DNMT1 over DNMT3A/DNMT3L [3] [fold]
Oc1cc(Cl)ccc1Oc1ccc(Cl)cc1Cl [Cmpd 13, triclosan]	15 ± 2	27	19	779 ± 42	47.5 ± 0.1 ºC	+1.0 ºC	nonselective	23±10	25±8	25 ± 4	
O=C(O)c1cc(O)c2c(c1)[C@@H]([C@H]1c3cc(C(=O)O)cc(O)c3C(=O)c3c(O[C@H]4O[C@H](CO)[C@@H](O)[C@H](O)[C@H]4O)cccc31)c1cccc(O[C@H]3O[C@H](CO)[C@@H](O)[C@H](O)[C@H]3O)c1C2=O [Cmpd 22]		0	7	621 ± 12	47.5 ± 0.1 ºC	+1.0 ºC		88±11	40±10	20 ± 5	
CC1/C=C/C=C/C=C/C=C/C=C/C=C/C=C/C(O[C@@H]2O[C@H](C)[C@H](O)[C@@H](O)[C@@H]2N)CC(O)C(C(=O)O)C(O)CC(=O)CC(O)CC(O)CC(O)CC(=O)CCCC(=O)CC(=O)OC1C(C)CC(C)C(O)CC(=O)c1ccc(N)cc1 (stereo partly drawn) [Cmpd 24]	5 ± 1	9	11	677 ± 60	47.5 ± 0.1 ºC	+1.0 ºC		49±16		49 ± 12	
O=C1c2ccccc2C(=O)c2c1ccc(O)c2O [Cmpd 26, alizarin]	27 ± 2	49	37	1024 ± 110	48.5 ± 0.1 ºC	+2.0 ºC	nonselective	49±12	51±10	68 ± 11	
CSc1nc2cc(Cl)c(Oc3cccc(Cl)c3Cl)cc2[nH]1 [Cmpd 29, triclabendazole]	20 ± 2	36	27	889 ± 20	48.3 ± 0.1 ºC	+1.8 ºC	exhibited selectivity	110±5		19 ± 6	
O=c1c(O)c(-c2ccc(O)c(O)c2)oc2c(O)c(O)cc(O)c12 [Cmpd 33]	25 ± 3	45	46	1145 ± 147	64.4 ± 0.2 ºC	+17.9 ºC		74±13	38±13	86 ± 9	
O=C(O)c1cc(O)c2c(c1)[C@@H]([C@@H]1c3cc(C(=O)O)cc(O)c3C(=O)c3c(O[C@H]4O[C@H](CO)[C@@H](O)[C@H](O)[C@H]4O)cccc31)c1cccc(O[C@H]3O[C@H](CO)[C@@H](O)[C@H](O)[C@H]3O)c1C2=O [Cmpd 36]		0	5	591 ± 41	47.4 ± 0.1 ºC	+0.9 ºC		83±15	30±12	40 ± 7	
CC(=O)NCCc1ccc(O)c(-c2c(O)c(O)c3c(c2O)C(=O)c2c(cc(O)c(C(=O)O)c2C(=O)O)C3=O)c1 [Cmpd 40, Laccaic acid A]	6 ± 1	11	5	602 ± 4	48.5 ± 0.1 ºC	+2.0 ºC		80±10	21±9	82 ± 10	~4
O=C(O)C(S)C(S)C(=O)O (stereo not drawn) [Cmpd 51]	5 ± 1	9	6	612 ± 55	49.0 ± 0.1 ºC	+2.5 ºC		61±12	24±11	36 ± 7	

From publication PMC3827244, “An Ultrasensitive High Throughput Screen for DNA Methyltransferase 1-Targeted Molecular Probes” (PLoS ONE, 2013)
